Reference: patent US10294202B2, “Pyrrolidinones as herbicides” (FMC Corporation, priority 2013, dated 2019)

Tests used:
[1] = system: nutsedge, yellow; assay: Test C pre-/postemergence herbicide test; format: in vivo, Cyperus esculentus
Method in brief: (§1)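 Plants grown and held in a greenhouse for 13 to 15 days post-spray, then rated 0–100 by visual comparison with controls. Pre treatments targeted seeds in loam and sand; post treatments targeted 1- to 4-leaf plants in peat-based potting medium.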

[2] = system: galium; assay: Test C pre-/postemergence herbicide test; format: in vivo, Galium aparine
Method in brief: as §1

[3] = system: pigweed; assay: Test A pre-/postemergence herbicide test; format: in vivo, Amaranthus retroflexus
Method in brief: (§2)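 Approximately 10 days after treatment in the greenhouse, plants were compared with untreated controls and given a 0–100 visual injury rating. Applications: preemergence directed soil spray; postemergence on 2–10 cm plants at the one- to two-leaf stage.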

[4] = system: lambsquarters; assay: Test C pre-/postemergence herbicide test; format: in vivo, Chenopodium album
Method in brief: as §1

[5] = system: pigweed; assay: Test C pre-/postemergence herbicide test; format: in vivo, Amaranthus retroflexus
Method in brief: as §1

[6] = system: corn; assay: Test C pre-/postemergence herbicide test; format: in vivo, Zea mays
Method in brief: as §1

[7] = system: johnsongrass; assay: Test C pre-/postemergence herbicide test; format: in vivo, Sorghum halepense
Method in brief: as §1

[8] = system: waterhemp; assay: Test C pre-/postemergence herbicide test; format: in vivo, Amaranthus rudis
Method in brief: as §1

[9] = system: velvetleaf; assay: Test C pre-/postemergence herbicide test; format: in vivo, Abutilon theophrasti
Method in brief: as §1

[10] = system: wheat; assay: Test A pre-/postemergence herbicide test; format: in vivo, Triticum aestivum; conditions: Postemergence
Method in brief: as §2

[11] = system: oilseed rape; assay: Test C pre-/postemergence herbicide test; format: in vivo, Brassica napus
Method in brief: as §1

[12] = system: foxtail, giant; assay: Test C pre-/postemergence herbicide test; format: in vivo, Setaria faberii
Method in brief: as §1

[13] = Postemergence, 31 g ai/ha, scale 0 to 100 (0 no effect, 100 complete control)
[14] = Postemergence, 62 g ai/ha, scale 0 (no effect) to 100 (complete control)
[15] = Postemergence, 125 g ai/ha, scale 0 to 100 (0 no effect, 100 complete control)
[16] = Postemergence, 250 g ai/ha, scale 0 to 100 (0 no effect, 100 complete control)
[17] = Preemergence, 31 g ai/ha, scale 0 to 100, 0 is no effect and 100 is complete control
[18] = Preemergence, 62 g ai/ha, scale 0 to 100 (0 no effect, 100 complete control)
[19] = Preemergence, 125 g ai/ha, scale 0 to 100 (0 no effect, 100 complete control)

O=C1NCC(c2cc(F)cc(F)c2)C1C(=O)Nc1cccc(F)c1F (racemic) [Compound 279]
Plant response rating, Nutsedge, Yellow [1, 13]: 0
Plant response rating, Nutsedge, Yellow [1, 14]: 0
Plant response rating, Nutsedge, Yellow [1, 15]: 0
Plant response rating, Nutsedge, Yellow [1, 16]: 0
Nutsedge, Yellow plant response rating [1, 17]: 0
Nutsedge, Yellow plant response rating [1, 18]: 0
Plant response rating, Nutsedge, Yellow [1, 19]: 0
Plant response rating (scale of 0 to 100), Nutsedge, Yellow ([1]; Preemergence, 250 g ai/ha): 55
Plant response rating, Galium [2, 13]: 0
Plant response rating, Galium [2, 14]: 15
Plant response rating, Galium [2, 15]: 30
Plant response rating, Galium [2, 16]: 30
Galium plant response rating [2, 17]: 0
Galium plant response rating [2, 18]: 0
Plant response rating, Galium [2, 19]: 85
Plant response rating (scale of 0 to 100), Galium ([2]; Preemergence, 250 g ai/ha): 85
Plant response rating, Pigweed ([3]; Postemergence, 125 g ai/ha, visual rating on 0 to 100 scale (0 no effect, 100 complete control), approx. 10 days): 0
Plant response rating, Pigweed ([3]; Postemergence, 500 g ai/ha, 0 to 100 scale (0 no effect, 100 complete control)): 0
Plant response rating, Pigweed ([3]; Preemergence, 125 g ai/ha, 0 to 100 scale where 0 is no effect and 100 is complete control): 0
Plant response rating, Pigweed ([3]; preemergence, 500 g ai/ha, 0 to 100 scale, 0 is no effect and 100 is complete control): 40
Plant response rating, Lambsquarters [4, 13]: 0
Plant response rating, Lambsquarters [4, 14]: 0
Plant response rating, Lambsquarters [4, 15]: 45
Plant response rating, Lambsquarters [4, 16]: 45
Lambsquarters plant response rating [4, 17]: 0
Lambsquarters plant response rating [4, 18]: 0
Plant response rating, Lambsquarters [4, 19]: 65
Plant response rating (scale of 0 to 100), Lambsquarters ([4]; Preemergence, 250 g ai/ha): 90
Plant response rating, Pigweed [5, 13]: 30
Plant response rating, Pigweed [5, 14]: 10
Plant response rating, Pigweed [5, 15]: 30
Plant response rating, Pigweed [5, 16]: 20
Pigweed plant response rating [5, 17]: 0
Pigweed plant response rating [5, 18]: 5
Plant response rating, Pigweed [5, 19]: 0
Plant response rating (scale of 0 to 100), Pigweed ([5]; Preemergence, 250 g ai/ha): 75
Plant response rating, Corn [6, 13]: 0
Plant response rating, Corn [6, 14]: 0
Plant response rating, Corn [6, 15]: 0
Plant response rating, Corn [6, 16]: 0
Corn plant response rating [6, 17]: 0
Corn plant response rating [6, 18]: 0
Plant response rating, Corn [6, 19]: 5
Plant response rating (scale of 0 to 100), Corn ([6]; Preemergence, 250 g ai/ha): 65
Plant response rating, Johnsongrass [7, 13]: 0
Plant response rating, Johnsongrass [7, 14]: 0
Plant response rating, Johnsongrass [7, 15]: 0
Plant response rating, Johnsongrass [7, 16]: 0
Johnsongrass plant response rating [7, 17]: 0
Johnsongrass plant response rating [7, 18]: 25
Plant response rating, Johnsongrass [7, 19]: 70
Plant response rating (scale of 0 to 100), Johnsongrass ([7]; Preemergence, 250 g ai/ha): 80
Plant response rating, Waterhemp [8, 13]: 5
Plant response rating, Waterhemp [8, 14]: 20
Plant response rating, Waterhemp [8, 15]: 15
Plant response rating, Waterhemp [8, 16]: 15
Waterhemp plant response rating [8, 17]: 0
Waterhemp plant response rating [8, 18]: 15
Plant response rating, Waterhemp [8, 19]: 55
Plant response rating (scale of 0 to 100), Waterhemp ([8]; Preemergence, 250 g ai/ha): 80
Plant response rating, Velvetleaf [9, 13]: 0
Plant response rating, Velvetleaf [9, 14]: 10
Plant response rating, Velvetleaf [9, 15]: 10
Plant response rating, Velvetleaf [9, 16]: 10
Velvetleaf plant response rating [9, 17]: 0
Velvetleaf plant response rating [9, 18]: 0
Plant response rating, Velvetleaf [9, 19]: 0
Plant response rating (scale of 0 to 100), Velvetleaf ([9]; Preemergence, 250 g ai/ha): 30
Plant response rating, Wheat ([10]; 125 g ai/ha, visual rating on 0 to 100 scale (0 no effect, 100 complete control), approx. 10 days): 40
Plant response rating, Wheat ([10]; 500 g ai/ha, 0 to 100 scale (0 no effect, 100 complete control)): 60
Plant response rating, Oilseed Rape [11, 13]: 0
Plant response rating, Oilseed Rape [11, 14]: 30
Plant response rating, Oilseed Rape [11, 15]: 0
Plant response rating, Oilseed Rape [11, 16]: 0
Oilseed Rape plant response rating [11, 17]: 0
Oilseed Rape plant response rating [11, 18]: 0
Plant response rating, Oilseed Rape [11, 19]: 30
Plant response rating (scale of 0 to 100), Oilseed Rape ([11]; Preemergence, 250 g ai/ha): 60
Plant response rating, Foxtail, Giant [12, 13]: 0
Plant response rating, Foxtail, Giant [12, 14]: 30
Plant response rating, Foxtail, Giant [12, 15]: 90
Plant response rating, Foxtail, Giant [12, 16]: 90
Foxtail, Giant plant response rating [12, 17]: 90
Foxtail, Giant plant response rating [12, 18]: 95
Plant response rating, Foxtail, Giant [12, 19]: 98
Plant response rating (scale of 0 to 100), Foxtail, Giant ([12]; Preemergence, 250 g ai/ha): 98
